From patent EP0049968A1, “Pharmaceutical compositions” (priority 1980, dated 1982)

How the values were obtained:
Experiment in all cases: MIC of compound (i) alone and in the presence of compound (iv), serial dilution in nutrient agar
Format in all cases: cell-based
[1] = tested on: Pseudomonas aeruginosa Dalgleish
Description: (§1) Activities of the compound (i) against a number of pathogenic organisms alone, and in the presence of 1.0, 2.5, 5.0 and 10 µg/ml of compound (iv).

Serratia marcescens US39 = tested on: Serratia marcescens US39
Description: as §1

Proteus mirabilis C889 = tested on: Proteus mirabilis C889
Description: as §1

E. coli = tested on: E. coli
Description: as §1

Measured: MIC (μg/ml) for compound (i)

CC1(C)S[C@@H]2[C@H](NC(=O)[C@H](NC(=O)Nc3cnc(Nc4ccc(S(N)(=O)=O)cc4)nc3O)c3ccc(O)cc3)C(=O)N2[C@H]1C(=O)O [compound (i)]
1.0 µg/mL: [1]; inoculum 10^-2, compound (iv) 2.5 μg/ml | [1]; inoculum 10^-2, compound (iv) 5.0 μg/ml | Serratia marcescens US39; compound (iv) 2.5 μg/ml | E. coli; E. coli JT4 R+, compound (iv) 5.0 μg/ml | E. coli; E. coli JT39 R+, compound (iv) 1.0 μg/ml
2.5 µg/mL: [1]; inoculum 10^-2, compound (iv) 1.0 μg/ml | [1]; inoculum 10^-2, compound (iv) 10 μg/ml | Serratia marcescens US39; compound (iv) 5.0 μg/ml | E. coli; E. coli JT4 R+, compound (iv) 2.5 μg/ml
>100 µg/mL: [1]; inoculum Undiluted, compound (iv) 0 μg/ml (alone) | Proteus mirabilis C889; compound (iv) 0 μg/ml (alone) | E. coli; E. coli JT4 R+, compound (iv) 0 μg/ml (alone) | E. coli; E. coli JT39 R+, compound (iv) 0 μg/ml (alone)
0.2 µg/mL: Proteus mirabilis C889; compound (iv) 2.5 μg/ml
10 µg/mL: [1]; inoculum Undiluted, compound (iv) 1.0 μg/ml | [1]; inoculum Undiluted, compound (iv) 10 μg/ml | E. coli; E. coli JT4 R+, compound (iv) 1.0 μg/ml
5.0 µg/mL: [1]; inoculum Undiluted, compound (iv) 2.5 μg/ml | [1]; inoculum Undiluted, compound (iv) 5.0 μg/ml | Serratia marcescens US39; compound (iv) 10 μg/ml
0.1 µg/mL: Proteus mirabilis C889; compound (iv) 5.0 μg/ml | Proteus mirabilis C889; compound (iv) 10 μg/ml | E. coli; E. coli JT39 R+, compound (iv) 10 μg/ml
50 µg/mL: [1]; inoculum 10^-2, compound (iv) 0 μg/ml (alone) | Serratia marcescens US39; compound (iv) 0 μg/ml (alone)
0.5 µg/mL: Serratia marcescens US39; compound (iv) 1.0 μg/ml | Proteus mirabilis C889; compound (iv) 1.0 μg/ml | E. coli; E. coli JT4 R+, compound (iv) 10 μg/ml | E. coli; E. coli JT39 R+, compound (iv) 2.5 μg/ml | E. coli; E. coli JT39 R+, compound (iv) 5.0 μg/ml
